Assay results: publication PMC9738632 (Molecules, 2022)
In brackets after ≈: the same amount, converted by molar mass. Read-outs that look alike come from different tables or passages of the source.

Experiments:
[1] = Cytotoxicity assay (MTT) in MDCK cells; format: cell-based, Canine; conditions: dog, read-out: CC50 (50% cytotoxic concentration)
Description: (§1) Initially, maximum non-toxic concentrations were determined for compounds 1–22 to exclude their non-specific antiviral activity. The in vitro cytotoxicity of the tested compounds (CC50) was studied in the normal Madin-Darby Canine Kidney cell line (MDCK) by the MTT ((3-(4,5-dimethylthiazol-2-yl)-2,5-diphenyltetrazolium bromide) test. The highest concentration tested was […]. The cytotoxicity of oseltamivir carboxylate and rimantadine was also evaluated as these have been used as reference drugs in antiviral tests. Compounds at concentration that kills no more than 50% of cells (CC50) were used for further investigation of antiviral activity.
(§2) The MDCK cells were seeded onto 96-well culture plates (10^4 cells per well) and incubated at 36 °C in 5% CO2 until continuous monolayer formation. To assess the toxicity of the compounds, a series of their 3-fold dilutions, at concentrations of 300 to 3.7 μg/mL in Eagle’s Minimal Essential Medium (MEM), were prepared. The dilutions were added to the wells of the plates. The cells were incubated for 72 h at 36 °C in a CO2 incubator under 5% CO2. Further, a microtetrazolium (MTT) assay was performed on the 96-well plates. The cells were washed 2 times with saline (0.9% NaCl), and 100 μL/well of MTT solution [3-(4,5-dimethylthiazol-2-yl)-2,5-diphenyltetrazolium bromide] at a concentration of […] in MEM was added. The plates were incubated for 1 h at 36 °C, the liquid was removed, and dimethylsulfoxide (DMSO) (0.1 mL per well) was added. The optical density (OD) of the cells was measured on a Thermo Multiskan FC spectrophotometer (Thermo Fisher Scientific, Waltham, MA, USA) at a wavelength of 540 nm. Based on the obtained data, the CC50, the concentration of the compound that destroys 50% of the cells in the culture, was calculated for each specimen.

MDCK cells = experiment: Cytotoxicity assay (MTT) in MDCK cells; format: cell-based, Canine; conditions: 72 h, read-out: CC50 (50% cytotoxic concentration)
Description: as §1, §2

[2] = system: influenza virus A/Puerto Rico/8/34 (H1N1); experiment: organism not typed; format: cell-based; conditions: read-out: IC50 (50% inhibitory concentration)
[3] = Cytotoxic assay (MTT) against BHK-21 cells; format: cell-based; conditions: hamster, read-out: CC50 (50% cytotoxic concentration)
Description: The cytotoxic evaluation of the extracts was carried out against the BHK-21 cells. Under cultural conditions of EMEM with FBS (10%), the assaying cells were grown in 96-well bottom-transparent plates at a density of 6 × 10^4 cells/mL per well. The compounds that had been dissolved in dimethyl sulfoxide (DMSO) with six different concentrations (500, 250, 125, 62.5, 31.25, 15.625 μg/mL) were added into each well; each concentration was used in triplicate. After incubation at 37 °C under 5% CO2 atmosphere for 48 h, MTT (0.5 mg/mL) was added into each well; afterwards, 4 h incubation was carried out. The liquid in the wells was removed, and DMSO ([…]) was added to each well. The optical absorbance was recorded on a microplate reader at λ = 570 nm (Genious Tecan, Grödig, […]). The optical density in the wells was plotted against the logarithm of compound concentration, and 50% cytotoxic concentration (CC50), the compound concentration decreasing the optical density twice comparing to control wells, was calculated using the appropriate software (Table Curve 2Dv4.USA).

DENV-1:VN/2017/D7709 = experiment: Plaque reduction neutralization test (PRNT), DENV-1; format: cell-based, Dengue virus; conditions: DENV-1, BHK-21 cells
Excerpt: (§3) The dengue viruses used in this study were DENV-1:VN/2017/D7709, DENV-2: 00St22A, DENV-3: SMLC50, DENV-4: SLMC318. The virus strains were supplied by the Vietnam National Institute of Hygiene and Epidemiology. The four above serotypes of the Dengue virus were propagated in BHK-21 cell lines (provided by Nagasaki University, Japan) in Eagle’s Minimum Essential Medium (EMEM; Gibco Thermo Fischer Scientific, Waltham, MA, USA) with 2% Fetal Bovine Serum (FBS; Sigma Aldrich, St. Louis, MO, USA) at 37 °C under 5% CO2 atmosphere for 5–7 days. The BHK-21 cells were cultured using 10% FBS EMEM medium.
(§4) EMEM (1 mL) containing FBS (2%) was added into each of 24-well plates (with a concentration of […] –1.0 × 10^4 cells/well). The well plates were shaken to induce the formation of identical cell layers. Afterwards, the wells were incubated at 37 °C under 5% CO2 atmosphere overnight until the cell concentration reached at 70–90%. In case this concentration was not yet reached, the incubation was allowed to continue for a further 1 to 2 days.
(§5) The compounds 4–8 and 23 were totally dissolved in EMEM with a concentration of 500 μg/mL, which was serially diluted with step 2 with EMEM containing 2% FBS; the solutions of compounds were kept at 2–8 °C. The viruses were used at the dose of 2.5 × 10^3 PFU/mL in EMEM containing 2% FBS. The virus (100 μL) was added to all the diluted samples. The virus-compounds mixtures were incubated at 37 °C under 5% CO2 atmosphere for 60 min; afterwards, the medium in all wells of the plates was removed. The virus-compounds mixture (50 μL) was added into the wells, according to the designed experimental test concentration/dilution.
(§6) The viral medium was used as the negative control. EMEM (2 mL) containing methyl cellulose (1%) was added and re-incubated at 37 °C under 5% CO2 atmosphere for 4–6 days. The typical DENV-1 and DENV-4-induced CPE appeared after 4 days of incubation, while the durations for DENV-2 and DENV-3 were 5 and 6 days, respectively. These times of incubation allowed the formation of the plaques to be visually observable and countable. The plaques can be observed under a microscope or by eyes. The cells were fixed with formalin (3.7%) for 1 h at room temperature, washed with water, and stained with crystal violet (0.25%) for 1 h at room temperature. Finally, the plaques were counted.

DENV-2: 00St22A = experiment: Plaque reduction neutralization test (PRNT), DENV-2; format: cell-based, Dengue virus; conditions: DENV-2, BHK-21 cells
Excerpt: as §3, §4, §5, §6

DENV-3: SMLC50 = experiment: Plaque reduction neutralization test (PRNT), DENV-3; format: cell-based, Dengue virus; conditions: DENV-3, BHK-21 cells
Excerpt: as §3, §4, §5, §6

DENV-4: SLMC318 = experiment: Plaque reduction neutralization test (PRNT), DENV-4; format: cell-based, Dengue virus; conditions: DENV-4, BHK-21 cells
Excerpt: as §3, §4, §5, §6

S. aureus = system: S. aureus; design: method as in doi:10.3390/M1078; conditions: cited from earlier work
E. coli = system: E. coli; design: method as in doi:10.3390/M1078; conditions: cited from earlier work
P. aeruginosa = system: P. aeruginosa; design: method as in doi:10.3390/M1078; conditions: cited from earlier work

CC1(C)CC[C@]2(C(=O)NCCNCCN)CC[C@]3(C)C(=CCC4[C@@]5(C)CCC(=O)C(C)(C)C5CC[C@]43C)C2C1 (stereo partly shown) [Compound 5]
CC50 at 72 h [1]: 48 µM | CC50 (MDCK cells): 50 ± 4 µM | IC50 ([2]; MDCK, 72 h): 20 to 21 µM | IC50 [2]: > 20 µM | CC50 at 48 h [3]: > 463 µM | PRNT50 DENV-1 (concentration that reduces plaque number by 50%) (DENV-1:VN/2017/D7709): inactive | IC50 (DENV-1:VN/2017/D7709; Dengue virus, DENV1, read-out: PRNT50 DENV-1 (concentration that reduces plaque number by 50%)): 220 ± 14 µM | PRNT50 DENV-2 (concentration that reduces plaque number by 50%) (DENV-2: 00St22A): inactive | IC50 (DENV-2: 00St22A; Dengue virus, DENV2, read-out: PRNT50 DENV-2 (concentration that reduces plaque number by 50%)): 372 ± 15 µM | PRNT50 DENV-3 (concentration that reduces plaque number by 50%) (DENV-3: SMLC50): inactive | IC50 (DENV-3: SMLC50; Dengue virus, DENV3, read-out: PRNT50 DENV-3 (concentration that reduces plaque number by 50%)): 452 ± 26 µM | PRNT50 DENV-4 (concentration that reduces plaque number by 50%) (DENV-4: SLMC318): inactive | IC50 (DENV-4: SLMC318; Dengue virus, DENV4, read-out: PRNT50 DENV-4 (concentration that reduces plaque number by 50%)): 433 ± 31 µM | MIC against S. aureus (S. aureus): 12.5 µM (≈ 6.75 µg/mL) | MIC against E. coli (E. coli): 25 µM (≈ 13.5 µg/mL) | MIC against P. aeruginosa (P. aeruginosa): 50 µM (≈ 27 µg/mL)
